Results: patent US6737058B2, “Methods for inhibiting endothelial cell and fibrinogen mediated inflammation using fibrinogen specific antibodies” (The Scripps Research Institute, priority 1992, dated 2004)

Experiments:
Parameters in all cases: species or system human
[1] = system: TNF or LPS-stimulated HUVEC; experiment: 125I-labelled fibrinogen binding to TNF- or LPS-stimulated HUVEC; conditions: TNF 5 ng/ml or LPS 1.0 μg/ml, 4 hours at 37° C.
Experimental: To determine the effect that known stimulators of HUVEC have on the binding characteristics of fibrinogen to HUVEC, dose-response experiments were performed as described in Example 3A2) on untreated HUVEC and TNF or lipopolysaccharide (LPS, Genzyme))-stimulated HUVEC. TNF and LPS were separately admixed at the respective concentrations of 5 nanograms (ng)/ml and 1.0 μg/ml to monolayers of HUVEC and maintained at 37° C. for 4 hours prior to the admixture of the labelled fibrinogen ranging in concentration from 0.01 μM up to 0.36 μM.

HUVEC [2] = experiment: Inhibition of 125I-labelled fibrinogen binding to HUVEC by cold fibrinogen, anti-VNR antibodies and RGD/RGE peptides
Experimental: Binding of ^125I-labelled fibrinogen binding to HUVEC assays were performed in the presence of 50 molar excess of unlabelled fibrinogen in order to confirm the specificity of binding as shown in Example 3A. The binding assay was performed as described in Example 3A with the exception that unlabelled fibrinogen was admixed to HUVEC at a 50 molar excess (approximately […] fibrinogen) concurrently with 50 μg/ml of ^125I-labelled fibrinogen. The protein-cell admixtures were maintained at 22° C. for 30 minutes to allow for binding of fibrinogen to HUVEC. In addition to cold fibrinogen, a 50 fold molar excess of BSA was separately admixed as a control. The amount of fibrinogen bound under the above conditions was quantitated as described in Example 3A. The uninhibited total binding of ^125I-labelled fibrinogen saturated after 30 minutes at approximately 4000 cpm per well. […] The binding of fibrinogen to the HUVEC surface fibrinogen receptor is therefore specific.
The specificity of binding to an RGD-independent fibrinogen receptor was confirmed in competition assays performed as described above in the presence of monoclonal antibodies against the beta subunit of the RGD-dependent VNR and in the presence of RGD-containing peptides. For the assays in which the ability of anti-VNR monoclonal antibodies, designated mAb 609 and mAb 7E3, to inhibit the binding of ^125I-labelled fibrinogen to HUVEC, the antibodies were separately maintained at a concentration of 25 μg/ml with HUVEC for 20 minutes at 37° C. After the maintenance period, the antibody-treated HUVEC were washed once with serum-free RPMI 1640 to remove any unbound antibody. Labelled fibrinogen was then admixed to the treated HUVEC at a concentration of 50 μg/ml in the presence of 2.5 mM CaCl2 and […] PPack. The resultant admixtures were maintained for 10-30 minutes at 22° C. The fibrinogen-treated HUVEC were then washed, solubilized and counted as described in Example 3A.
To confirm that the fibrinogen binding site on HUVEC was not RGD dependent, inhibition assays performed as described above for inhibiting with antibodies except that they were done in the presence of 1.0 mM of an RGD-containing peptide. A control RGE-containing peptide was also included in the assay. At selected time points over the time course of one hour, the HUVEC were harvested as described in Example 3A.

HUVEC [3] = experiment: 125I-labelled fibrinogen binding to HUVEC monolayers, dose dependency; conditions: monolayers of unstimulated HUVEC, 22° C., 45 minutes, 2.5 mM CaCl2
Experimental: Fibrinogen was iodinated using the Iodogen™ method. Briefly, Iodogen™ was dissolved in dichloromethane for a final concentration of 1 μg/ml and 170 μl of dissolved Iodogen™ that was dried in the bottom of a glass tube. Fibrinogen, prepared in Example 1A, was resuspended in 0.055 M sodium citrate buffer, pH 7.4, for a final concentration of 5 μg/ml. Two hundred μl of dissolved fibrinogen solution was placed into the Iodogen™-coated tube with 700 μCi of carrier-free sodium iodide. The admixture was maintained on ice for 20 minutes with occasional agitation. To stop the iodination reaction, the admixture was removed from the tube and gel filtered on a […]™ G-25 coarse column (100×2.5). Fractions of iodinated fibrinogen were determined by trichloroacetic acid precipitable counts. The labelled fibrinogen produced was radiolabelled to a specific activity of 0.3 μCi/μg of protein. Labelled fibrinogen was used in the binding and inhibition of binding assays described herein at a concentration of 50 μg/ml whereas unlabelled fibrinogen was generally used at a concentration of 500 μg/ml. […]
The resultant admixtures were maintained at 22° C. for 45 minutes to allow for fibrinogen to bind to the plated HUVEC. […] The cells were then solubilized in 10% SDS and the radioactivity associated under the maintenance conditions was quantitated in a gamma counter.

HUVEC [4] = experiment: Iodinated D30 binding to HUVEC monolayers and its competition; conditions: 50 fold molar excess of cold fibrinogen; myoglobin as nonspecific protein
Experimental: Binding assays described above in Example 3A2) were also performed with the fibrinogen homolog, D30, to determine if that region of fibrinogen also immunoreacted with HUVEC. Since D30 was known to bind to leukocytes via the Mac-1 receptor as described by Altieri et al., J. Biol. Chem., 265:12119-12122 (1990), these experiments were performed to determine if regions of fibrinogen mediating the binding of leukocytes to HUVEC are contained within the D30 fragment. For this analysis, the D30 fragment of fibrinogen prepared in Example 1B was labelled with ^125I as described for labelling of fibrinogen above. Iodinated D30 was admixed to HUVEC monolayers at a concentration of 10 μg/ml to form a binding complex. After washing the cells to remove the unbound D30 as described in Example 3A2) above, the cells were solubilized and the amount of bound radioactivity was determined. The binding of D30 to HUVEC was maximal at 120 minutes of the maintenance period with approximately 60,000 cpm.

- uninhibited total binding of 125I-labelled fibrinogen at saturation (HUVEC [2]; 50 μg/ml, after 30 minutes, 22° C.): approximately 4000 cpm per well
- inhibition of 125I-labelled fibrinogen binding to HUVEC (FIG. 7) (HUVEC [2]; cold fibrinogen in 50 molar excess, 10-30 minutes): almost completely inhibited
- inhibition of 125I-labelled fibrinogen binding to HUVEC (FIG. 8) (HUVEC [2]; cold fibrinogen, time course of one hour): completely inhibited
- concentration at which 125I-labelled fibrinogen binds saturably (HUVEC [3]): approximately 0.36 μM
- competition of D30 binding to HUVEC (HUVEC [4]): specifically competed
Substance: fibrinogen: fibrinogen isolated from fresh plasma by cold ethanol fractionation, fibronectin-free
- labelled fibrinogen molecules bound per cell in comparison to unstimulated cells [1]: doubled
- inhibition of 125I-labelled fibrinogen binding to HUVEC (HUVEC [2]; 50 molar excess of unlabelled protein, 50 μg/ml labelled fibrinogen, 22° C., 30 minutes): half that of the total uninhibited binding
